Where a SMILES comes first, the peptide text is derived from it. The star is where a group is joined. Cbz = O=C(OCc1ccccc1)*

Results on 8 molecules are retold here after patent US20160069887A1, “BIOMARKERS FOR PROGNOSIS” (ISIS INNOVATION LIMITED, priority 2013, published 2016).

Test [1] concerns U2OS cells. Description: Global ubiquitination (His6-ubiquitin, Ni2+ pull-down, anti-His immunoblot). Format: cell-based. As to conditions: for global ubiquitination, SAHA and MG132 combined: SAHA 5 μM 20 hr and MG132 20 μM 4 hr. How it is done:
Cell lysates and Ni^2+ pull-down eluates were analyzed by immunoblotting with anti-His as described. The input HR23B is shown underneath, together with actin levels.
Ni^2+ pull-down eluates were analyzed by immunoblotting with anti-His. The input HR23B level is shown underneath, together with actin levels.
Transfected cells in a 10 cm dish were washed twice with ice-cold PBS and harvested into 1 ml of 8M urea, 0.1 M Na2HPO4/NaH2PO4, 0.01M Tris-HCl, and pH8.0. Lysates were sheared by taking through 23 gauge needle to reduce viscosity. Protein concentration was measured with Bradford (Bio-Rad) and normalised. About 100 μl of lysate was mixed with 4×SDS loading buffer for input. Then 900 μl of lysate was incubated with 70 μl of a 50% slurry of nickel (Ni^2+-NTA)-agarose beads (Qiagen), 5 mM imidazole and 10 mM β-mercaptoethanol overnight at 4° C. The beads were collected by 1 min centrifugation at 8,000 rpm and washed with 750 μl of the following buffers with 5 min mixing at room temperature for each washing step: twice with 8M urea, 0.1M Na2HPO4/NaH2PO4, 0.01 M Tris-HCl, pH 8.0, 10 mM β-mercaptoethanol and 0.1% Triton X-100; three times with 8M urea, 0.1M Na2HPO4/NaH2PO4, 0.01M Tris-HCl, pH 6.3, 10 mM β-mercaptoethanol and 0.1% Triton X-100. The bound proteins were then eluted with 100 μl of elution buffer (200 mM imidazole, 5% SDS, 150 mM Tris-HCl pH6.8, 30% glycerol, 720 mM β-mercaptoethanol, 0.005% bromophenol blue) for 30 min incubation followed by 10 min spin at 13,000 rpm. Samples were heated to 95° C. for 5 min, cooled, and a typical volume of 30 μl loaded on each lane for immunoblot analysis.
In general terms: In western blotting, separated proteins are transferred to a membrane and probed.

Test [2] relates to U2OS cells. Nature of the test: Immunoblot for apoptosis (PARP) and autophagy (LC3 cleavage). The note with it: co-treatment SAHA and 3-methyladenine (10 mM) for 18 hr. The class given is cell-based.
Test [3] deals with Flag-HDAC6 stable inducible cell line. Description: Immunoblot of endogenous HR23B and cleaved caspase 3 upon induction of Flag-HDAC6. The note with it: for HDAC6-dependent down-regulation of HR23B: Dox-induced Flag-HDAC6, 3MA 5 and 10 mM, 17-AAG 0.1 or 1 μM, tubastatin 10 μM, bortezomib 48 hr.
Test [4] deals with HUT78, MYLA (CTCL), A2058, A375 (melanoma), HCT116 and HCT15 (CRC). Description: Immunoblot of autophagy markers and HR23B in tumour cell lines treated with HDAC inhibitors. The note with it: for autophagy markers (LC3 cleavage, LAMP1, cathepsin D): immunoblot after 18 hr or 24 hr treatment. Format: cell-based.
In test [5] the test system is U2OS cells. Nature of the test: Visualisation of autophagosomes by anti-LC3 immunostaining. The class given is cell-based. The method, then: Counter-stain with DAPI was superimposed for each image.
Cells seeded onto coverslips were washed in PBS and fixed in 3.7% formaldehyde for 15 min. Cells were permeabilised in PBS containing 0.5% Triton X-100 for 5 min and then blocked in 5% FCS/PBS for 30 min at room temperature before incubation with primary antibody as indicted. Coverslips were washed in PBS containing 0.05% Tween-20 and incubated with corresponding secondary antibodies for 30 min at room temperature. Alexa Fluro 488 (green fluorescence) or Alexa Fluor 594 (red fluorescence) (Molecular Probes). Finally coverslips were washed extensively in PBS containing 0.05% Tween-20 and mounted onto microscope slides using Vectashield containing DAPI (Vector Laboratories).

Test [6] deals with patients after potentially-curative surgery for stage II/III colorectal cancer. As to conditions: 1167 rofecoxib patients; median follow-up 4.84 years; cited from earlier work.
For test [7], the target named is T1, Flag-HDAC6 (wild-type, full length, ectopic) (human, UniProt Q9UBN7 1-1215).
T1 construct: Expressed by transfection or by doxycycline induction in U2OS cells; also called pcDNA-Flag-HDAC6; WT HDAC6; not shown: Flag tag
T1 sequence: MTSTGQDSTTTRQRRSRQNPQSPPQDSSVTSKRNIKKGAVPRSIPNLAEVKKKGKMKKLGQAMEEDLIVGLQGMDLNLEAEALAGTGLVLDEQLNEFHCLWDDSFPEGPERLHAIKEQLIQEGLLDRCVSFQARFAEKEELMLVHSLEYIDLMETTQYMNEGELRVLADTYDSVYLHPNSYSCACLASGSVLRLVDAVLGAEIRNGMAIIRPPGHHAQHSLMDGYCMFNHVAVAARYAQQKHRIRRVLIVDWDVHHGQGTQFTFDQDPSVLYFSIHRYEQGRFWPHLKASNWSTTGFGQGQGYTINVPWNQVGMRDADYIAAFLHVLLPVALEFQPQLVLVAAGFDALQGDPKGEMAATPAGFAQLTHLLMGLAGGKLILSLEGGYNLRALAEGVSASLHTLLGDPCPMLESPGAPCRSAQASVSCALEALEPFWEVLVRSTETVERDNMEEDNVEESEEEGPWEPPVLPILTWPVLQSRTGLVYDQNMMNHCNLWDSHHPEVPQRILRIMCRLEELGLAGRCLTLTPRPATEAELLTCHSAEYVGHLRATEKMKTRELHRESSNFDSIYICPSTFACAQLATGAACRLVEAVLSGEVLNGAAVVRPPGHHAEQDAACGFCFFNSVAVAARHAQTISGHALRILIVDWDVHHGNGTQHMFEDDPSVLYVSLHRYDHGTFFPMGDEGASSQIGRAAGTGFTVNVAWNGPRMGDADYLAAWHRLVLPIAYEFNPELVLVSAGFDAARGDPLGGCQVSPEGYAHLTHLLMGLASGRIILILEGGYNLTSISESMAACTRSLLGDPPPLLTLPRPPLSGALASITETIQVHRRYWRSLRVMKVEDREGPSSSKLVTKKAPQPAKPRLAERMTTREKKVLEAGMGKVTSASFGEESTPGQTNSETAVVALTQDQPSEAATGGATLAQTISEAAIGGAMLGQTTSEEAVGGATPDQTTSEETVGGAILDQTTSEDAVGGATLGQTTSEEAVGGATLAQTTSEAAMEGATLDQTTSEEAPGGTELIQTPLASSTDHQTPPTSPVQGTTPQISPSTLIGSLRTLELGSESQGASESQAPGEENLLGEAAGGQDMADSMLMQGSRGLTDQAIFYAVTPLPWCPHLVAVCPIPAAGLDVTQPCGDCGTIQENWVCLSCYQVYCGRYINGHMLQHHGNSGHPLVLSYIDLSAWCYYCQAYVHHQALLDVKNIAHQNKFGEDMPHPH
Nature of the test: anti-Flag co-immunoprecipitation of Flag-HDAC6 from co-transfected U2OS cells, anti-Myc immunoblot.

As to `CC(C)C[C@@H](C=O)NC(=O)[C@H](CC(C)C)NC(=O)[C@H](CC(C)C)NC(=O)OCc1ccccc1` [MG132] (Cbz-Leu-Leu-Leu-aldehyde), in the test with U2OS cells [1], the “global ubiquitination, SAHA and MG132 combined” value was “even greater level of ubiquitination”. Moreover, in the test with U2OS cells [1] (SAHA 5 μM 20 hr or MG132 20 μM 4 hr, vs untreated), the “global ubiquitination, single agent” value is listed as “increase in ubiquitination”.
Consider `Cn1cnc(N)c2ncnc1-2` [3-MA, 3-methyladenine], for which, in the test on U2OS cells [2], the level of apoptosis entry is recorded as “an enhanced level of apoptosis was apparent”. For the same molecule, the “HDAC6-dependent down-regulation of HR23B” value in test [3] is “failed to affect down-regulation of HR23B by HDAC6”.
In the case of `C=CCNC1=C2C[C@@H](C)C[C@H](OC)[C@H](O)[C@@H](C)/C=C(\C)[C@H](OC(N)=O)[C@@H](OC)/C=C\C=C(/C)C(=O)NC(=CC1=O)C2=O` [17-AAG], the “HDAC6-dependent down-regulation of HR23B” value in test [3] was “HDAC6 failed to down-regulate HR23B”.
As to tubastatin, the “HDAC6-dependent down-regulation of HR23B” value in test [3] is recorded as “did not impact on the HDAC6-dependent down-regulation of HR23B”. Further, the “increase in HR23B upon 17-AAG treatment” value in test [3] (tubastatin 10 μM together with 17-AAG) was “did prevent the increase in HR23B upon 17-AAG treatment”.
With `O=C(CCCCCCC(=O)Nc1ccccc1)NO` [SAHA, N-hydroxy-N′-phenyloctanediamide], the “level of HR23B” value in test [4] (at increasing SAHA concentration, coinciding with autophagocytic markers) is given as “decreased levels of HR23B”. Also, the “autophagy markers (LC3 cleavage, LAMP1, cathepsin D)” value in test [4] is “caused LC3 cleavage as well as the appearance of LAMP1 and cathepsin D”. Also, the “autophagosomes when ectopic HR23B was expressed” value with U2OS cells [5] (SAHA 10 μM for 18 hr, + vs − doxycycline) is on record as “less evident”. The “visual appearance of autophagosomes” value in the test with U2OS cells [5] (SAHA 10 and 20 μM) was “visual appearance of autophagosomes in cells”. Moreover, in the test with U2OS cells [2], the level of apoptosis result is on record as “an enhanced level of apoptosis was apparent”. Also, the “global ubiquitination, SAHA and MG132 combined” value with U2OS cells [1] is “even greater level of ubiquitination”.
In the case of `CS(=O)(=O)c1ccc(C2=C(c3ccccc3)C(=O)OC2)cc1` [rofecoxib], in test [6], the deaths was 241 and the recurrences was 297.
Take `CCCC(CCC)C(=O)O` [valproic acid, 2-Propylpentanoic acid]: the “autophagy markers (LC3 cleavage, LAMP1, cathepsin D)” value in test [4] is on record as “resulted in similar effects”.

B1: HR23B ΔUbL, myc/his tagged (other)
chain: AVSTPAPATTQQSAPASTTAVTSSTTTTVAQAPTPVPALAPTSTPASITPASATASSEPAPASAAKQEKPAEKPAETPVATSPTATDSTSGDSSRSNLFEDATSALVTGQSYENMVTEIMSMGYEREQVIAALRASFNNPDRAVEYLLMGIPGDRESQAVVDPPQAASTGAPQSSAVAAAAATTTATTTTTSSGGHPLEFLRNQPQFQQMRQIIQQNPSLLPALLQQIGRENPQLLQQISQHQEHFIQMLNEPVQEAGGQGGGGGGGSGGIAEAGSGHMNYIQVTPQEKEAIERLKALGFPEGLVIQAYFACEKNENLAANFLLQQNFDED
notes: not shown: myc/his tag from the pcDNA3.1 (+)/Myc-His vector
As for B1, in test [7], the binding result was “no binding”.
